In publication PMC4052943 (BioMed Research International, 2014):
Like-named read-outs stand apart in the source and are kept apart here.

Tests used:
[1] = test system: Salmonella typhimurium strains TA97a, TA98, TA100, and TA102; assay: Ames test, statements over all tester strains
Method: (§2) In the preincubation experiment, test compounds and mutagen, each having a volume of 0.1 mL of varying concentrations, were preincubated at 37°C for 30 min and then 0.1 mL of 1 × 10^7 CFU/mL density of the bacterial culture was added, followed by the addition of 2.5 mL of top agar at 45°C (containing 0.5% NaCl and 0.6% agar) supplemented with 0.5 mM histidine-biotin. […] The combined solutions were vortexed and poured onto minimal glucose plates (40% glucose solution and Vogel Bonner medium). The plates were incubated at 37°C for 48 h and the numbers of histidine-independent revertants colonies were scored.
(§3) Survival of the bacteria was routinely monitored for each experiment. Parallel controls were run with compounds alone at all concentrations to test the possible toxicity. The concentrations of the test samples for investigating the antimutagenicity were 50, 100, 200, and 500 μM. […] All the test samples and mutagens were dissolved in DMSO (final conc., 0.01%). […] Plates were set up in triplicate for each concentration and the entire experiment was repeated three times. Inhibition of mutagenicity was expressed as percentage decrease of reverse mutation and calculated as (1) Percent inhibition=[(a−b)/(a−c)]×100, where a = number of histidine revertants induced by mutagen, b = number of histidine revertants induced by mutagen in the presence of test compound, and c = number of revertants induced in negative control.

[2] = test system: Salmonella typhimurium TA97a; assay: Ames antimutagenicity assay (preincubation); conditions: for inhibition at 50 µM / inhibition at 100 µM / inhibition at 250 µM / inhibition at 500 µM: Salmonella enterica, TYPHIMURIUM;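 on all read-outs here: compound and mutagen preincubated together 30 min at 37 °C before adding bacteria, then plated on minimal glucose agar for 48 h and His+ revertant colonies counted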
Method: as §2, §3

H1299 cells = assay: MTT cell proliferation assay; type: cell-based; conditions: Homo sapiens, NCI-H1299, 48 h, read-out: inhibition of cells (antiproliferative activity, MTT)
Method: (§1) Inhibition of cell proliferation by PC and EA was measured with the MTT assay. Human lung cancer A549 and H1299 cells were obtained from ATCC (Manassas, VA, USA) and maintained in DMEM supplemented with 10% fetal calf serum (FCS), 1% penicillin/streptomycin. Cells were plated in 96-well culture plates (5 × 10^3 cells/well). After 24 h incubation, cells were treated with vehicle alone (0.1% DMSO) and PC and EA (12.5–200 μg/mL) extracts for 48 h. Then, the culture medium was replaced by 100 μL of fresh medium containing 0.5 mg/mL MTT, and the plates were incubated for 2 h at 37°C. The medium was then removed and was replaced by 200 μL of DMSO to solubilize the converted purple dye. The absorbance was measured with a spectrophotometer microplate reader at a wavelength of 570 nm.

A549 cells = assay: MTT cell proliferation assay; type: cell-based; conditions: Homo sapiens, A549, 48 h, read-out: inhibition of cells (antiproliferative activity, MTT)
Method: as §1

[3] = test system: Salmonella typhimurium TA98; assay: Ames antimutagenicity assay (preincubation); conditions: Salmonella enterica, TYPHIMURIUM;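 further: test compound and mutagen preincubated 30 min at 37°C before adding bacteria, then His+ revertant colonies counted after 48 h plating, inhibition relative to mutagen-only versus negative-control revertants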
Method: as §2, §3

Compound: O=C1O[C@H]2[C@@H]3OC(=O)c4cc(O)c(O)c(O)c4-c4c(O)c(O)c5oc(=O)c6c(c(O)c(O)c7oc(=O)c4c5c76)-c4c(cc(O)c(O)c4O)C(=O)OC[C@H]3OC(O)[C@@H]2OC(=O)c2cc(O)c(O)c(O)c2-c2c1cc(O)c(O)c2O (mixture of isomers) [Punicalagin]
- toxicity to Salmonella typhimurium strains ([1]; 50–500 μM, absence of S9): No toxicity
- inhibition at 500 µM ([1]; Salmonella enterica, TYPHIMURIUM, read-out: inhibition of 2AF- and BP-induced mutagenicity (range over strains)): 76.7 to 85%
- mutagenic activity ([1]; TA97a, TA98, TA100, TA102, with or without S9, plate incorporation assay): No mutagenic activity
- maximum inhibition of mutagenicity ([1]; against sodium azide, MMS, BP, 2AF, 50–500 μM): up to 90%
- inhibition at 50 µM ([2]; read-out: % inhibition of mutagenicity, TA 97a, 50 μM + 2AF, S9): 15.7%
- inhibition at 50 µM ([2]; read-out: % inhibition of mutagenicity, TA 97a, 50 μM + BP, S9): 15.1%
- inhibition at 50 µM ([2]; read-out: % inhibition of mutagenicity, TA 97a, 50 μM + MMS, no S9): 10.2%
- inhibition at 50 µM ([2]; read-out: % inhibition of mutagenicity, TA 97a, 50 μM + NaN3, no S9): 10.2%
- inhibition at 100 µM ([2]; read-out: % inhibition of mutagenicity, TA 97a, 100 μM + 2AF, S9): 37.1%
- inhibition at 100 µM ([2]; read-out: % inhibition of mutagenicity, TA 97a, 100 μM + BP, S9): 34.3%
- inhibition at 100 µM ([2]; read-out: % inhibition of mutagenicity, TA 97a, 100 μM + MMS, no S9): 19.9%
- inhibition at 100 µM ([2]; read-out: % inhibition of mutagenicity, TA 97a, 100 μM + NaN3, no S9): 34.2%
- inhibition at 250 µM ([2]; read-out: % inhibition of mutagenicity, TA 97a, 250 μM + BP, S9): 53.5%
- inhibition at 250 µM ([2]; read-out: % inhibition of mutagenicity, TA 97a, 250 μM + MMS, no S9): 42.4%
- inhibition at 250 µM ([2]; read-out: % inhibition of mutagenicity, TA 97a, 250 μM + NaN3, no S9): 54.9%
- inhibition at 500 µM ([2]; read-out: % inhibition of mutagenicity, TA 97a, 500 μM + 2AF, S9): 78.5%
- inhibition at 500 µM ([2]; read-out: % inhibition of mutagenicity, TA 97a, 500 μM + BP, S9): 76.7%
- inhibition at 500 µM ([2]; read-out: % inhibition of mutagenicity, TA 97a, 500 μM + MMS, no S9): 72%
- inhibition at 500 µM ([2]; read-out: % inhibition of mutagenicity, TA 97a, 500 μM + NaN3, no S9): 74.4%
- Number of His+ revertants colonies/plate ([2]; TA 97a, 50 μM + 2AF, S9): 304.7 ± 19.8 colonies/plate
- Number of His+ revertants colonies/plate ([2]; TA 97a, 50 μM + BP, S9): 645.3 ± 28.7 colonies/plate
- Number of His+ revertants colonies/plate ([2]; TA 97a, 50 μM + MMS, no S9): 418.3 ± 11.7 colonies/plate
- Number of His+ revertants colonies/plate ([2]; TA 97a, 50 μM + NaN3, no S9): 244.3 ± 6.7 colonies/plate
- Number of His+ revertants colonies/plate ([2]; TA 97a, 100 μM + 2AF, S9): 270.3 ± 10.1 colonies/plate
- Number of His+ revertants colonies/plate ([2]; TA 97a, 100 μM + BP, S9): 538.3 ± 28.9 colonies/plate
- Number of His+ revertants colonies/plate ([2]; TA 97a, 100 μM + MMS, no S9): 390.7 ± 10.2 colonies/plate
- Number of His+ revertants colonies/plate ([2]; TA 97a, 100 μM + NaN3, no S9): 221.0 ± 7.1 colonies/plate
- Number of His+ revertants colonies/plate ([2]; TA 97a, 250 μM + BP, S9): 431.0 ± 18.4 colonies/plate
- Number of His+ revertants colonies/plate ([2]; TA 97a, 250 μM + MMS, no S9): 326.0 ± 7.8 colonies/plate
- Number of His+ revertants colonies/plate ([2]; TA 97a, 250 μM + NaN3, no S9): 202.3 ± 8.7 colonies/plate
- Number of His+ revertants colonies/plate ([2]; TA 97a, 500 μM + 2AF, S9): 220.0 ± 9.3 colonies/plate
- Number of His+ revertants colonies/plate ([2]; TA 97a, 500 μM + BP, S9): 316.0 ± 17.6 colonies/plate
- Number of His+ revertants colonies/plate ([2]; TA 97a, 500 μM + MMS, no S9): 251.0 ± 9.0 colonies/plate
- % inhibition of mutagenicity ([2]; TA 97a, 500 μM + MMS, no S9, 500 µM): 72.1%
- Number of His+ revertants colonies/plate ([2]; TA 97a, 500 μM + MMS, no S9, listed as PC): 251 colonies/plate
- Number of His+ revertants colonies/plate ([2]; TA 97a, 500 μM + NaN3, no S9): 195.0 ± 10.8 colonies/plate
- inhibition at 50 µg/mL (H1299 cells): 57%
- inhibition at 50 µg/mL (A549 cells): 34%
- inhibition at 50 µM ([3]; read-out: % inhibition of mutagenicity, TA 98, 50 μM + 2AF, S9): 20.5%
- inhibition at 50 µM ([3]; read-out: % inhibition of mutagenicity, TA 98, 50 μM + BP, S9): 22.1%
- inhibition at 50 µM ([3]; read-out: % inhibition of mutagenicity, TA 98, 50 μM + MMS, no S9): 29.4%
- inhibition at 100 µM ([3]; read-out: % inhibition of mutagenicity, TA 98, 100 μM + 2AF, S9): 37.5%
- inhibition at 100 µM ([3]; read-out: % inhibition of mutagenicity, TA 98, 100 μM + BP, S9): 46.6%
- inhibition at 100 µM ([3]; read-out: % inhibition of mutagenicity, TA 98, 100 μM + MMS, no S9): 46.3%
- inhibition at 100 µM ([3]; read-out: % inhibition of mutagenicity, TA 98, 100 μM + NaN3, no S9): 30%
- inhibition at 250 µM ([3]; read-out: % inhibition of mutagenicity, TA 98, 250 μM + BP, S9): 74.8%
- inhibition at 250 µM ([3]; read-out: % inhibition of mutagenicity, TA 98, 250 μM + MMS, no S9): 59.2%
- inhibition at 250 µM ([3]; read-out: % inhibition of mutagenicity, TA 98, 250 μM + NaN3, no S9): 52.2%
